Several values for one entry are separate records, joined by “and”; a condition that tells them apart may be missing. Equal values may be shown once.
What was measured:
Type in all cases: biochemical
AKT-3 = AKT-3 (Homo sapiens, UniProt Q9Y243); experiment: AKT-3 inhibition assay (standard coupled enzyme assay); settings: 170 μM ATP, 200 μM peptide, 45 nM AKT, 30° C.
PDK-1 = molecular target: T1, PDK-1 (Homo sapiens, UniProt O15530); experiment: PDK-1 inhibition assay (radioactive-phosphate incorporation); settings: 40 μM ATP, 65 μM PDKtide, 25 nM PDK-1, 30° C.
T1 sequence (O15530 1-556): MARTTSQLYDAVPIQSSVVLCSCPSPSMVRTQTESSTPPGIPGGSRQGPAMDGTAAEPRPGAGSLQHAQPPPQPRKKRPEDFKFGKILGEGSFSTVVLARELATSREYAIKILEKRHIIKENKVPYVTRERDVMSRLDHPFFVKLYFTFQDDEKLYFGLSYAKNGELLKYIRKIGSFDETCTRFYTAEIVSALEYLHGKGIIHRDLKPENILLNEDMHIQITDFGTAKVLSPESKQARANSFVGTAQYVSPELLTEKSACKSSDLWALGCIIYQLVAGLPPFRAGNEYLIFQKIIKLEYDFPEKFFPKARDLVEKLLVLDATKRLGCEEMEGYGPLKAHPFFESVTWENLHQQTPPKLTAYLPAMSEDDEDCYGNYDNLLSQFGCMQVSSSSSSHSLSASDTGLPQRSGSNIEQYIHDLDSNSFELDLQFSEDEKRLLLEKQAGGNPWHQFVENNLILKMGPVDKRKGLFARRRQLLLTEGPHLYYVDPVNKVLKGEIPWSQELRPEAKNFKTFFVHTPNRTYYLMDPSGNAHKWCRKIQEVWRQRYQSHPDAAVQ
Procedure: Compounds were screened for their ability to inhibit PDK-1 using a radioactive-phosphate incorporation assay (Pitt and Lee, J. Biomol. Screen., (1996) 1, 47). Assays were carried out in a mixture of 100 mM HEPES (pH 7.5), 10 mM MgCl2, 25 mM NaCl, 2 mM DTT. Final substrate concentrations in the assay were 40 μM ATP (Sigma Chemicals) and 65 μM peptide (PDKtide, Upstate, Lake Placid, N.Y.). Assays were carried out at 30° C. and 25 nM PDK-1 in the presence of ˜27.5 nCi/μL of [γ-^32P]ATP (Amersham Pharmacia Biotech, Amersham, UK). An assay stock buffer solution was prepared containing all of the reagents listed above, with the exception of ATP, and the test compound of interest. 15 μl of the stock solution was placed in a 96 well plate followed by addition of 1 μl of 0.5 mM DMSO stock containing the test compound (final compound concentration 25 μM, final DMSO concentration 5%). The plate was preincubated for about 10 minutes at 30° C. and the reaction initiated by addition of 4 μl ATP (final concentration 40 μM).
The reaction was stopped after 10 minutes by the addition of 100 μL 100 mM phosphoric acid, 0.01% Tween-20. A phosphocellulose 96 well plate (Millipore, Cat no. MAPHNOB50) was pretreated with 100 μL 100 mM phosphoric acid, 0.01% Tween-20 prior to the addition of the reaction mixture (100 μL). The spots were left to soak for at least 5 minutes, prior to wash steps (4×200 μL 100 mM phosphoric acid, 0.01% Tween-20). Alter drying, 20 μL Optiphase ‘SuperMix’ liquid scintillation cocktail (Perkin Elmer) was added to the well prior to scintillation counting (1450 Microbeta Liquid Scintillation Counter, Wallac).

PKA = PKA (Homo sapiens, UniProt P17612); experiment: PKA inhibition assay (standard coupled enzyme assay); settings: 50 μM ATP, 80 μM Kemptide, 18 nM PKA, 30° C.
Procedure: Compounds were screened for their ability to inhibit PKA using a standard coupled enzyme assay (Fox et al., Protein Sci., (1998) 7, 2249). Assays were carried out in a mixture of 100 mM HEPES 7.5, 10 mM MgCl2, 25 mM NaCl, 1 mM DTT and 3% DMSO. Final substrate concentrations in the assay were 50 μM ATP (Sigma Chemicals) and 80 μM peptide (Kemptide, American Peptide, Sunnyvale, Calif.). Assays were carried out at 30° C. and 18 nM PKA. Final concentrations of the components of the coupled enzyme system were 2.5 mM phosphoenolpyruvate, 300 μM NADH, 30 μg/ml pyruvate kinase and 10 μg/ml lactate dehydrogenase.
An assay stock buffer solution was prepared containing all of the reagents listed above, with the exception of ATP, and the test compound of interest. 55 μl of the stock solution was placed in a 96 well plate followed by addition of 2 μl of DMSO stock containing serial dilutions of the test compound (typically starting from a final concentration of 5 μM). The plate was preincubated for 10 minutes at 30° C. and the reaction initiated by addition of 5 μl of ATP (final concentration 50 μM). Initial reaction rates were determined with a Molecular Devices SpectraMax Plus plate reader over a 15 minute time course. IC50 and Ki data were calculated from non-linear regression analysis using the Prism software package (GraphPad Prism version 3.0a for Macintosh, GraphPad Software, San Diego Calif., USA).

Chain of AKT-3 (Q9Y243 whole entry): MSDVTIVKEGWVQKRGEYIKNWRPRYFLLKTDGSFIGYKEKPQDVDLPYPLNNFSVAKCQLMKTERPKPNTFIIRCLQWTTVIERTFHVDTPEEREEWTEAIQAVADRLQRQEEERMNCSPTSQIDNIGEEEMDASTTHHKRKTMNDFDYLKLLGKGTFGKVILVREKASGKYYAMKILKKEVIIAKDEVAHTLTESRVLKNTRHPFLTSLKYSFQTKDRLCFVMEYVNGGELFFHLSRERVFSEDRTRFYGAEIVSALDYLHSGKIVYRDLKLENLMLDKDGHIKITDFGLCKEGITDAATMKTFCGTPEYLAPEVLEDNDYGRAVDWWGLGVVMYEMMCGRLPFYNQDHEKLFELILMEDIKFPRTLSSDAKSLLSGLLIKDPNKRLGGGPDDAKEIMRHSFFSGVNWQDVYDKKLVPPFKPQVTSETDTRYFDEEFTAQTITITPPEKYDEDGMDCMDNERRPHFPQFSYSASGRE

NCCC(C(=O)Nc1ccc2[nH]ncc2c1)c1cccc(Cl)c1F (stereo not drawn) [Compound I-101] gave a Ki (AKT-3) of less than 1000 nM, a Ki (PDK-1) of 1 to 3 µM and a Ki (PKA) of less than 1000 nM.
NCCC(C(=O)Nc1ccc2[nH]ncc2c1)c1c(F)ccc(Cl)c1F (stereo not drawn) [Compound I-109] gave a Ki (AKT-3) of less than 1000 nM, a Ki (PDK-1) of less than 1 µM and a Ki (PKA) of less than 1000 nM.
Compound NCCC(C(=O)Nc1ccc2[nH]nc(NC3CCCCC3)c2c1)c1ccc(Cl)c(Cl)c1 (stereo not drawn) [Compound I-159] has a Ki (AKT-3) of 1000 to 10000 nM, a Ki (PDK-1) greater than 3 µM and a Ki (PKA) of less than 1000 nM.
CNCCC(C(=O)Nc1ccc2[nH]ncc2c1)c1ccc(Cl)c(Cl)c1 (stereo not drawn) [Compound I-153] gave a Ki (AKT-3) of less than 1000 nM, a Ki (PDK-1) greater than 3 µM and a Ki (PKA) of less than 1000 nM.
Cc1n[nH]c2ccc(NC(=O)C(CCN)c3ccc(Cl)c(Cl)c3F)cc12 (stereo not drawn) [Compound I-136] showed a Ki (AKT-3) of less than 1000 nM, a Ki (PDK-1) of less than 1 µM and a Ki (PKA) of less than 1000 nM.
For O=C(Nc1ccc2[nH]ncc2c1)C1(c2ccccc2)CCNCC1 [Compound I-156], the Ki (AKT-3) was 1000 to 10000 nM, the Ki (PDK-1) was greater than 3 µM and the Ki (PKA) was less than 1000 nM.
For CCNc1ccc(C(=O)Nc2n[nH]c3ccc(NC(=O)C(CCN)c4ccc(Cl)c(Cl)c4)cc23)cc1 (stereo not drawn) [Compound I-207], the Ki (AKT-3) was less than 1000 nM, the Ki (PDK-1) was less than 1 µM and the Ki (PKA) was less than 1000 nM.
Compound NCCC(C(=O)Nc1ccc2[nH]nc(CCc3ccccc3)c2c1)c1ccc(Cl)c(Cl)c1 (stereo not drawn) [Compound I-123] has a Ki (AKT-3) of 1000 to 10000 nM, a Ki (PDK-1) of less than 1 µM and a Ki (PKA) of less than 1000 nM.
With CCc1n[nH]c2ccc(NC(=O)C(CCN)c3ccc(Cl)c(Cl)c3)cc12 (stereo not drawn) [Compound I-118] the Ki (AKT-3) was less than 1000 nM, the Ki (PDK-1) was 1 to 3 µM and the Ki (PKA) was less than 1000 nM.
CNc1ccc(C(=O)Nc2n[nH]c3ccc(NC(=O)C(CCN)c4ccc(Cl)c(Cl)c4)cc23)cc1 (stereo not drawn) [Compound I-206] gave a Ki (AKT-3) of less than 1000 nM, a Ki (PDK-1) of less than 1 µM and a Ki (PKA) of less than 1000 nM.
Work on NCCC(C(=O)Nc1ccc2[nH]ncc2c1)c1ccc2ccccc2c1 (stereo not drawn) [Compound I-102] yielded a Ki (AKT-3) of less than 1000 nM, a Ki (PDK-1) greater than 3 µM and a Ki (PKA) of less than 1000 nM.
Compound NCCC(C(=O)Nc1ccc2[nH]nc(NC(=O)c3ccccc3)c2c1)c1ccc(Cl)c(Cl)c1 (stereo not drawn) [Compound I-141] has a Ki (AKT-3) of less than 1000 nM, a Ki (PDK-1) of less than 1 µM and a Ki (PKA) of less than 1000 nM.
NCCC(C(=O)Nc1ccc2[nH]nc(Nc3cccc(F)c3)c2c1)c1ccccc1 (stereo not drawn) [Compound I-1039] showed a Ki (AKT-3) of 1000 to 10000 nM, a Ki (PDK-1) greater than 3 µM and a Ki (PKA) of less than 1000 nM.
CSc1cccc(C(CCN)C(=O)Nc2ccc3[nH]ncc3c2)c1 (stereo not drawn) [Compound I-108] showed a Ki (AKT-3) of less than 1000 nM, a Ki (PDK-1) of 1 to 3 µM and a Ki (PKA) of less than 1000 nM.
NCC[C@@H](C(=O)Nc1ccc2[nH]nc(NC(=O)c3cccc(Cl)c3)c2c1)c1cccc(Cl)c1F [Compound I-177] showed a Ki (AKT-3) of less than 1000 nM, a Ki (PDK-1) of 1 to 3 µM and a Ki (PKA) of less than 1000 nM.
Cc1n[nH]c2ccc(NC(=O)C(CN)c3ccc(Cl)c(Cl)c3)cc12 (stereo not drawn) [Compound I-233] was tested, and the Ki (AKT-3) was less than 1000 nM, the Ki (PDK-1) was 1 to 3 µM and > 3 µM and the Ki (PKA) was less than 1000 nM.
NCCC(C(=O)Nc1ccc2[nH]nc(NC(=O)c3ccncc3)c2c1)c1ccc(Cl)c(Cl)c1 (stereo not drawn) [Compound I-193] was tested, and the Ki (AKT-3) was less than 1000 nM, the Ki (PDK-1) was less than 1 µM and the Ki (PKA) was less than 1000 nM.
NCCC(C(=O)Nc1ccc2[nH]nc(NC(=O)c3cccc(OC(F)(F)F)c3)c2c1)c1ccc(Cl)c(Cl)c1 (stereo not drawn) [Compound I-204] was tested, and the Ki (AKT-3) was less than 1000 nM, the Ki (PDK-1) was greater than 3 µM and the Ki (PKA) was less than 1000 nM.
In the case of NCCC(C(=O)Nc1ccc2[nH]nc(NC(=O)c3cc(F)cc(F)c3)c2c1)c1ccc(Cl)c(Cl)c1 (stereo not drawn) [Compound I-201], the Ki (AKT-3) is reported as less than 1000 nM, the Ki (PDK-1) is reported as greater than 3 µM and the Ki (PKA) is reported as less than 1000 nM.
N#Cc1cccc(C(=O)Nc2n[nH]c3ccc(NC(=O)C(CCN)c4ccc(Cl)c(Cl)c4)cc23)c1 (stereo not drawn) [Compound I-175] showed a Ki (AKT-3) of less than 1000 nM, a Ki (PDK-1) of 1 to 3 µM and a Ki (PKA) of less than 1000 nM.
NCCC(C(=O)Nc1ccc2[nH]nc(NC(=O)c3ccccc3Cl)c2c1)c1ccc(Cl)c(Cl)c1 (stereo not drawn) [Compound I-180] showed a Ki (AKT-3) of less than 1000 nM, a Ki (PDK-1) of 1 to 3 µM and a Ki (PKA) of less than 1000 nM.
With NCCC(C(=O)Nc1ccc2[nH]nc(Nc3ccc(Br)cc3)c2c1)c1ccc(Cl)c(Cl)c1 (stereo not drawn) [Compound I-166] the Ki (AKT-3) was less than 1000 nM, the Ki (PDK-1) was 1 to 3 µM and the Ki (PKA) was less than 1000 nM.
Work on NCCC(C(=O)Nc1ccc2[nH]nc(Nc3ccc(Cl)cc3)c2c1)c1ccc(Cl)c(Cl)c1 (stereo not drawn) [Compound I-163] yielded a Ki (AKT-3) of less than 1000 nM, a Ki (PDK-1) greater than 3 µM and a Ki (PKA) of less than 1000 nM.

— patent US7041687B2, “Indazole compounds useful as protein kinase inhibitors” (Vertex Pharmaceuticals Incorporated, priority 2002, dated 2006)
